From PMC7377239, “Cardiovascular Effects of Polychlorinated Biphenyls and Their Major Metabolites” (Environmental Health Perspectives, 2020)
Where a name gives a salt, the structure may show the parent alone.

Assays:
[1] = system: iCell endothelial cells (human iPSC-derived ECs); test: High-content imaging cytotoxicity in iCell endothelial cells, 24 h; format: cell-based; details: for minimal effective concentration: Homo sapiens, Endothelial cell, endothelial cells (endo), 24 hr; for endo.cyto.24hr / endo.mito.24hr / endo.mitoint.24hr / endo.nma.24hr / endo.tc.24hrs: iPSC-EC, 0.00 µM = 100.00
Outline: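 Human iPSC-derived endothelial cells (passages 1–5) were grown to a fibronectin-coated monolayer, then exposed 24 h at 37 °C with 0.5% DMSO vehicle. Staining was Hoechst 33342, MitoTracker Orange and calcein AM, read by high-content imaging. Point of departure came from 4-parameter logistic fits, with a 1-SD vehicle cutoff and 100 µM as the top concentration.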

[2] = system: iCell endothelial cells (human iPSC-derived ECs); test: Tube formation (tubulogenesis) assay in iCell endothelial cells, 18 h; format: cell-based; details: for minimal effective concentration: Homo sapiens, Endothelial cell, endothelial cells (endo), 18 hr; for endo.mtl.18hr / endo.tlps.18hr / endo.tta.18hr / endo.ttl.18hr: iPSC-EC, 0.00 µM = 100.00
Outline: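 iCell ECs (passages 1–5) seeded 7,500 cells/well on reduced-growth-factor Geltrex in starvation medium, exposed overnight at 37°C to compounds in triplicate concentration–response (0.5% DMSO vehicle). Calcein AM staining, 4× imaging, angiogenesis image analysis; readouts normalized to vehicle, four-parameter logistic fit, POD at 1 SD of vehicle; 100 μM assigned NOAEL if no response.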

[3] = cyto, read-out: POD endo.cyto.24hr
[4] = mito, read-out: POD endo.mito.24hr
[5] = mitoint, read-out: POD endo.mitoint.24hr
[6] = nma, read-out: POD endo.nma.24hr
[7] = tube formation mtl, read-out: POD endo.mtl.18hr
[8] = tube formation tlps, read-out: POD endo.tlps.18hr
[9] = tube formation tta, read-out: POD endo.tta.18hr
[10] = tube formation ttl, read-out: POD endo.ttl.18hr

With `Clc1cccc(-c2cccc(Cl)c2)c1` [PCB 11, 3,3′-Dichlorobiphenyl] as the molecule, how does the minimal effective concentration [1, 3] read?
The minimal effective concentration was 100 µM.

And the minimal effective concentration [1, 4]?
Its minimal effective concentration is 100 µM.

What about the minimal effective concentration [1, 5] of the same molecule?
The minimal effective concentration was 100 µM.

What about the minimal effective concentration [1, 6] of the same molecule?
The minimal effective concentration was 100 µM.

What about the minimal effective concentration ([1]; tc, read-out: POD endo.tc.24hr) of the same molecule?
Its minimal effective concentration is 100 µM.

What about the “effect on cell viability in iPSC-ECs” value ([1]; iPSC-ECs, 0.01-100 μM) of the same molecule?
The value was “did not affect cell viability”.

And the minimal effective concentration [2, 7]?
The minimal effective concentration was 100 µM.

What about the minimal effective concentration [2, 8] of the same molecule?
The minimal effective concentration was 100 µM.

And the minimal effective concentration [2, 9]?
The minimal effective concentration was 100 µM.

What about the minimal effective concentration [2, 10] of the same molecule?
Its minimal effective concentration is 100 µM.

With `Clc1ccc(Cl)c(-c2c(Cl)ccc(Cl)c2Cl)c1Cl` [(-)-PCB 136, 2,2′,3,3′,6,6′-hexachlorobiphenyl] as the molecule, how does the endo.cyto.24hr ([1]; 0.01 µM) read?
The endo.cyto.24hr was 97.58.

And the endo.mito.24hr ([1]; 0.01 µM)?
Its endo.mito.24hr is 98.40.

What about the endo.mitoint.24hr ([1]; 0.01 µM) of the same molecule?
The endo.mitoint.24hr was 92.73.

And the endo.nma.24hr ([1]; 0.01 µM)?
The endo.nma.24hr was 101.21.

What about the endo.tc.24hrs ([1]; 0.01 µM) of the same molecule?
Its endo.tc.24hrs is 97.58.

And the endo.cyto.24hr ([1]; 0.10 µM)?
Its endo.cyto.24hr is 98.68.

And the endo.mito.24hr ([1]; 0.10 µM)?
Its endo.mito.24hr is 99.17.

What about the endo.mitoint.24hr ([1]; 0.10 µM) of the same molecule?
Its endo.mitoint.24hr is 90.73.

What about the endo.nma.24hr ([1]; 0.10 µM) of the same molecule?
Its endo.nma.24hr is 99.07.

And the endo.tc.24hrs ([1]; 0.10 µM)?
The endo.tc.24hrs was 98.68.

What about the endo.cyto.24hr ([1]; 1.00 µM) of the same molecule?
Its endo.cyto.24hr is 92.98.

What about the endo.mito.24hr ([1]; 1.00 µM) of the same molecule?
The endo.mito.24hr was 93.57.

What about the endo.mitoint.24hr ([1]; 1.00 µM) of the same molecule?
The endo.mitoint.24hr was 89.65.

And the endo.nma.24hr ([1]; 1.00 µM)?
The endo.nma.24hr was 102.49.

What about the endo.tc.24hrs ([1]; 1.00 µM) of the same molecule?
Its endo.tc.24hrs is 92.98.

What about the endo.cyto.24hr ([1]; 10.00 µM) of the same molecule?
Its endo.cyto.24hr is 96.25.

What about the endo.mito.24hr ([1]; 10.00 µM) of the same molecule?
The endo.mito.24hr was 96.58.

What about the endo.mitoint.24hr ([1]; 10.00 µM) of the same molecule?
The endo.mitoint.24hr was 86.88.

What about the endo.nma.24hr ([1]; 10.00 µM) of the same molecule?
Its endo.nma.24hr is 101.21.

What about the endo.tc.24hrs ([1]; 10.00 µM) of the same molecule?
Its endo.tc.24hrs is 96.25.

What about the endo.cyto.24hr ([1]; 100.00 µM) of the same molecule?
The endo.cyto.24hr was 49.24.

What about the endo.mito.24hr ([1]; 100.00 µM) of the same molecule?
The endo.mito.24hr was 43.24.

What about the endo.mitoint.24hr ([1]; 100.00 µM) of the same molecule?
Its endo.mitoint.24hr is 53.93.

What about the endo.nma.24hr ([1]; 100.00 µM) of the same molecule?
Its endo.nma.24hr is 111.21.

What about the endo.tc.24hrs ([1]; 100.00 µM) of the same molecule?
The endo.tc.24hrs was 54.61.

And the endo.mtl.18hr ([2]; 0.01 µM)?
Its endo.mtl.18hr is 102.71.

And the endo.tlps.18hr ([2]; 0.01 µM)?
The endo.tlps.18hr was 139.80.

What about the endo.tta.18hr ([2]; 0.01 µM) of the same molecule?
Its endo.tta.18hr is 138.00.

What about the endo.ttl.18hr ([2]; 0.01 µM) of the same molecule?
Its endo.ttl.18hr is 138.93.

And the endo.mtl.18hr ([2]; 0.10 µM)?
The endo.mtl.18hr was 112.13.

What about the endo.tlps.18hr ([2]; 0.10 µM) of the same molecule?
The endo.tlps.18hr was 103.80.

What about the endo.tta.18hr ([2]; 0.10 µM) of the same molecule?
Its endo.tta.18hr is 103.27.

And the endo.ttl.18hr ([2]; 0.10 µM)?
The endo.ttl.18hr was 116.27.

What about the endo.mtl.18hr ([2]; 1.00 µM) of the same molecule?
The endo.mtl.18hr was 102.66.

And the endo.tlps.18hr ([2]; 1.00 µM)?
Its endo.tlps.18hr is 134.14.

And the endo.tta.18hr ([2]; 1.00 µM)?
The endo.tta.18hr was 146.36.

And the endo.ttl.18hr ([2]; 1.00 µM)?
Its endo.ttl.18hr is 142.63.

What about the endo.mtl.18hr ([2]; 10.00 µM) of the same molecule?
Its endo.mtl.18hr is 114.95.

And the endo.tlps.18hr ([2]; 10.00 µM)?
The endo.tlps.18hr was 133.39.

And the endo.tta.18hr ([2]; 10.00 µM)?
Its endo.tta.18hr is 144.91.

What about the endo.ttl.18hr ([2]; 10.00 µM) of the same molecule?
The endo.ttl.18hr was 148.25.

What about the endo.mtl.18hr ([2]; 100.00 µM) of the same molecule?
Its endo.mtl.18hr is 40.89.

What about the endo.tlps.18hr ([2]; 100.00 µM) of the same molecule?
Its endo.tlps.18hr is 14.11.

What about the endo.tta.18hr ([2]; 100.00 µM) of the same molecule?
The endo.tta.18hr was 1.36.

What about the endo.ttl.18hr ([2]; 100.00 µM) of the same molecule?
Its endo.ttl.18hr is 1.73.

With `Clc1cc(Cl)c(-c2cc(Cl)c(Cl)cc2Cl)cc1Cl` [PCB 153, 2,2′,4,4′,5,5′-hexachlorobiphenyl] as the molecule, how does the minimal effective concentration [1, 3] read?
Its minimal effective concentration is 18.6 µM.

What about the minimal effective concentration [1, 4] of the same molecule?
The minimal effective concentration was 18.6 µM.

What about the minimal effective concentration [1, 5] of the same molecule?
The minimal effective concentration was 0.07 µM.

What about the minimal effective concentration [1, 6] of the same molecule?
Its minimal effective concentration is 62.5 µM.

And the minimal effective concentration ([1]; tc, read-out: POD endo.tc.24hr)?
Its minimal effective concentration is 49.2 µM.

And the minimal effective concentration [2, 7]?
Its minimal effective concentration is 0.007 µM.

What about the minimal effective concentration [2, 8] of the same molecule?
The minimal effective concentration was 1.93 µM.

What about the minimal effective concentration [2, 9] of the same molecule?
The minimal effective concentration was 3.83 µM.

And the minimal effective concentration [2, 10]?
The minimal effective concentration was 0.58 µM.

Which results are given for `Oc1ccc(-c2ccc(Cl)cc2)cc1` [4'-OH-PCB 3]?
minimal effective concentration [1, 3]: 41.1 µM; minimal effective concentration [1, 4]: 41.1 µM; minimal effective concentration [1, 5]: 100 µM; minimal effective concentration [1, 6]: 100 µM; minimal effective concentration ([1]; tc, read-out: POD endo.tc.24hr): 52 µM; minimal effective concentration [2, 7]: 1.21 µM; minimal effective concentration [2, 8]: 0.19 µM; minimal effective concentration [2, 9]: 1.16 µM; minimal effective concentration [2, 10]: 1.12 µM

How did the minimal effective concentration [1, 3] turn out when `O=S(=O)(O)Oc1cc(-c2ccccc2)ccc1Cl` [3-PCB 3 sulfate] was run?
Its minimal effective concentration is 100 µM.

And the minimal effective concentration [1, 4]?
The minimal effective concentration was 100 µM.

What about the minimal effective concentration [1, 5] of the same molecule?
Its minimal effective concentration is 100 µM.

What about the minimal effective concentration [1, 6] of the same molecule?
Its minimal effective concentration is 100 µM.

And the minimal effective concentration ([1]; tc, read-out: POD endo.tc.24hr)?
The minimal effective concentration was 100 µM.

What about the minimal effective concentration [2, 7] of the same molecule?
Its minimal effective concentration is 100 µM.

And the minimal effective concentration [2, 8]?
The minimal effective concentration was 6.75 µM.

And the minimal effective concentration [2, 9]?
Its minimal effective concentration is 100 µM.

And the minimal effective concentration [2, 10]?
The minimal effective concentration was 100 µM.

With `O=S(=O)(O)Oc1ccc(-c2cccc(Cl)c2)cc1Cl` [4-PCB 11 sulfate] as the molecule, how does the minimal effective concentration [1, 3] read?
The minimal effective concentration was 100 µM.

What about the minimal effective concentration [1, 4] of the same molecule?
Its minimal effective concentration is 100 µM.

What about the minimal effective concentration [1, 5] of the same molecule?
Its minimal effective concentration is 100 µM.

And the minimal effective concentration [1, 6]?
Its minimal effective concentration is 100 µM.

And the minimal effective concentration ([1]; tc, read-out: POD endo.tc.24hr)?
Its minimal effective concentration is 100 µM.

What about the minimal effective concentration [2, 7] of the same molecule?
The minimal effective concentration was 25.3 µM.

What about the minimal effective concentration [2, 8] of the same molecule?
The minimal effective concentration was 12.7 µM.

What about the minimal effective concentration [2, 9] of the same molecule?
The minimal effective concentration was 21 µM.

And the minimal effective concentration [2, 10]?
Its minimal effective concentration is 25.6 µM.

Which minimal effective concentration [1, 3] does the source give for `Oc1ccc(-c2cccc(Cl)c2)cc1Cl` [4-OH-PCB 11] here?
The minimal effective concentration was 43.6 µM.

And the minimal effective concentration [1, 4]?
Its minimal effective concentration is 43.6 µM.

And the minimal effective concentration [1, 5]?
Its minimal effective concentration is 13 µM.

And the minimal effective concentration [1, 6]?
The minimal effective concentration was 9.66 µM.

And the minimal effective concentration ([1]; tc, read-out: POD endo.tc.24hr)?
Its minimal effective concentration is 62.1 µM.

And the minimal effective concentration [2, 7]?
Its minimal effective concentration is 17.7 µM.

What about the minimal effective concentration [2, 8] of the same molecule?
Its minimal effective concentration is 52.5 µM.

And the minimal effective concentration [2, 9]?
The minimal effective concentration was 15.8 µM.

What about the minimal effective concentration [2, 10] of the same molecule?
Its minimal effective concentration is 16.1 µM.
